Measurements as given in patent US20180344680A1, “COMPOSITIONS AND METHODS FOR TREATMENT, AMELIORATION, AND PREVENTION OF DIABETES-RELATED SKIN ULCERS” (THE ARIZONA BOARD OF REGENTS ON BEHALF OF THE UNIVERSITY OF …, priority 2015, published 2018).

Test system: MMP9
Experiment: MMP9 expression in wound skin tissues of STZ mice (immunoblot, IHC)
Assay type: in vivo, mouse
Details: immunoblot and IHC, day 14
Text: Diabetes mouse model and treatments. Nrf2^+/+ and Nrf2^-/- C57BL/6 mice were described previously (see, e.g., Jiang T, et al., Diabetes 59:850-860, 2010) and were housed and handled in accordance with the University of Arizona Institutional Animal Care policies. The STZ-induced diabetic model was previously described (see, e.g., Zheng H, et al., Diabetes 60:3055-3066, 2011) and only 8 week old male mice were included in this study. Briefly, three weeks after STZ injections, fasting glucose levels (FGL, 4 h fast) were measured using the AlphaTRAK system (Abbott Laboratory, North Chicago, Ill.) and mice with a FGL higher than or equal to 250 mg/dL were considered diabetic and included in the study (see, e.g., FIG. 2A and FIG. 3A for a detailed timeline). […] Gross wound closure was quantified by ImageJ software, and wound healing was expressed as the percentage of the original wound area that had healed. […] Morphology was assessed by hematoxylin and eosin (H&E) staining (Vector laboratory, Burlingame, Calif.). […] Protein concentration was measured using Quant-iT Protein Assay (Invitrogen) and 150 μg of protein were resolved by SDS-PAGE and immunoblotting analyses with the indicated antibodies.

Row | SMILES | MMP9 protein expression
1 | O=CC=Cc1ccccc1 [CA, Cinnamaldehyde] | restored the protein expression of MMP9 to levels comparable to the Con mice
2 | C[S@@+]([O-])CCCCN=C=S [SF, L-sulforaphane] | restored the protein expression of MMP9 to levels comparable to the Con mice
